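Results reflect a 48-hour exposure of cells in 96-well plates to compound at five concentrations. The concentration for 50% growth inhibition is given as GI50.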 The source made the active and inactive calls. No stated cut-off is given here; in the data, active = GI50 up to about 1.1 µM and inactive = higher. Where a SMILES comes first, the peptide text is derived from it. The star is where a group is joined. Cbz = O=C(OCc1ccccc1)*; Boc = CC(C)(C)OC(=O)*; Bn = c1ccc(C*)cc1
What was measured:
Assay in all cases: NCI anticancer screen, dose series, 48 h
[1] = tested on: SK-MEL-2
[2] = tested on: UACC-257
[3] = tested on: SK-MEL-28
[4] = tested on: MOLT-4
[5] = tested on: SNB-19
[6] = tested on: LOX IMVI
[7] = tested on: NCI-H226
[8] = tested on: SW-620
[9] = tested on: PC-3
[10] = tested on: Malme-3M
[11] = tested on: NCI-H522
[12] = tested on: OVCAR-8
[13] = tested on: M14
[14] = tested on: IGROV-1
[15] = tested on: RPMI-8226
[16] = tested on: SF-539
[17] = tested on: K562
[18] = tested on: NCI-H23
[19] = tested on: KM12
[20] = tested on: SR

Measured: GI50

COc1cc(/C=C2\Cc3cc(OC)c(OC)cc3C2=O)cc(OC)c1
active: [17] 0.479 µM
inactive: [1] > 60 µM | [2] > 87.3 µM | [3] > 100 µM | [4] > 100 µM | [5] 25.8 µM | [6] > 55.7 µM | [7] > 100 µM | [8] > 100 µM | [9] > 79.1 µM | [10] 15.8 µM | [11] 3.74 µM | [12] > 26 µM | [13] > 100 µM | [14] 5.93 µM | [15] > 33.6 µM | [16] 13.1 µM | [18] 17.6 µM

CC(=O)Oc1cc2c(n(C)c1=O)-c1ccccc1C2
inactive: [1] > 100 µM | [2] > 100 µM | [3] > 100 µM | [4] 66.8 µM | [5] > 100 µM | [6] 29.4 µM | [7] > 100 µM | [8] 24.4 µM | [9] 40.8 µM | [19] > 100 µM | [10] 31.8 µM | [11] 15.9 µM | [12] 32 µM | [13] 93.3 µM | [14] 36.2 µM | [15] > 100 µM | [17] > 100 µM | [18] 75.5 µM

Fc1cc(F)c(F)c(S)c1F
inactive: [1] > 100 µM | [2] > 100 µM | [3] > 100 µM | [4] 23.8 µM | [5] > 100 µM | [6] > 100 µM | [7] > 100 µM | [8] 59.7 µM | [9] 19.8 µM | [19] > 100 µM | [10] > 100 µM | [11] 15.5 µM | [12] 41.1 µM | [13] > 100 µM | [14] > 100 µM | [15] 31.3 µM | [16] > 100 µM | [17] 57.4 µM | [18] > 100 µM

COc1ccc2nc3n(c2c1)C(c1c(Cl)cccc1Cl)SC3 (stereo unspecified)
inactive: [1] > 100 µM | [2] > 100 µM | [3] > 100 µM | [4] > 100 µM | [5] > 100 µM | [6] > 100 µM | [7] > 100 µM | [8] > 100 µM | [9] > 100 µM | [19] > 100 µM | [12] > 100 µM | [13] > 100 µM | [20] > 100 µM | [14] > 100 µM | [15] > 100 µM | [17] > 100 µM | [18] > 100 µM

COc1ccc(/C=N/n2c(Cc3ccc(Cl)cc3)n[nH]c2=O)c(OC)c1
inactive: [1] 53 µM | [2] 41.1 µM | [3] 80 µM | [4] > 100 µM | [5] 20.7 µM | [6] 60.5 µM | [7] 29.9 µM | [8] > 100 µM | [9] 28.8 µM | [19] 27.3 µM | [10] > 100 µM | [11] 16 µM | [12] 33 µM | [13] 94.8 µM | [14] 20.8 µM | [15] > 100 µM | [16] > 100 µM | [17] > 100 µM | [18] 29.4 µM

CCCCC(=O)c1ccc2ccccc2c1O
inactive: [1] > 100 µM | [2] > 100 µM | [3] > 100 µM | [4] 84.1 µM | [5] > 100 µM | [6] > 100 µM | [7] > 100 µM | [8] > 100 µM | [9] > 100 µM | [19] > 100 µM | [12] > 100 µM | [13] > 100 µM | [20] 62.5 µM | [14] > 100 µM | [15] 35.5 µM | [16] > 100 µM | [17] 28.8 µM | [18] > 100 µM

Cc1cc2c(O)c(c1)CN(Cc1ccccc1)Cc1cc(C)cc(c1O)CN(Cc1ccccc1)Cc1cc(C)cc(c1O)CN(Cc1ccccc1)C2
inactive: [1] 32.3 µM | [2] > 100 µM | [3] > 100 µM | [4] > 100 µM | [5] > 100 µM | [6] > 100 µM | [7] > 100 µM | [8] > 100 µM | [9] > 100 µM | [19] > 100 µM | [10] > 100 µM | [11] > 100 µM | [12] > 100 µM | [13] > 100 µM | [14] > 100 µM | [15] > 100 µM | [16] > 100 µM | [17] > 100 µM | [18] > 100 µM

O=C(N/N=C(COc1ccc(Cl)cc1)\N=C\c1ccncc1)c1ccncc1
inactive: [1] > 100 µM | [2] > 100 µM | [3] > 100 µM | [4] > 100 µM | [5] > 100 µM | [6] > 100 µM | [7] > 100 µM | [8] > 100 µM | [9] > 100 µM | [19] > 100 µM | [10] > 100 µM | [11] 84.5 µM | [12] > 100 µM | [13] > 100 µM | [14] > 100 µM | [15] 83.8 µM | [16] > 100 µM | [17] > 100 µM | [18] > 100 µM

O=C(N/N=C(COc1cccc(Cl)c1)\N=C\c1cccnc1)c1ccncc1
inactive: [1] > 100 µM | [2] 90.4 µM | [3] > 100 µM | [4] > 100 µM | [5] > 100 µM | [6] > 100 µM | [7] 93.5 µM | [8] > 100 µM | [9] > 100 µM | [19] > 100 µM | [10] > 100 µM | [11] 63.7 µM | [12] 89.3 µM | [13] > 100 µM | [14] > 100 µM | [15] > 100 µM | [16] > 100 µM | [17] > 100 µM | [18] > 100 µM

CO/C(=N\N=C\c1cc(OC)ccc1OC)c1ccncc1
inactive: [1] > 10 µM | [3] > 10 µM | [4] > 10 µM | [5] > 10 µM | [6] > 10 µM | [7] > 10 µM | [8] > 10 µM | [9] > 10 µM | [19] > 10 µM | [10] > 10 µM | [12] > 10 µM | [20] > 10 µM | [14] > 10 µM | [15] > 10 µM | [16] > 10 µM | [17] > 10 µM | [18] > 10 µM

COC(=O)CSc1[nH]c2nc(C)nc(Nc3ccccc3)c2c1C#N
inactive: [2] > 10 µM | [3] > 10 µM | [4] > 10 µM | [6] > 10 µM | [8] > 10 µM | [9] > 10 µM | [19] > 10 µM | [10] > 10 µM | [12] > 10 µM | [13] > 10 µM | [20] > 10 µM | [14] > 10 µM | [15] > 10 µM | [17] > 10 µM | [18] > 10 µM

CCN(CC)c1nc(NC2CCCCC2)c2nc(N(CC)CC)nc(NC3CCCCC3)c2n1
inactive: [3] > 100 µM | [4] > 100 µM | [5] > 100 µM | [7] > 100 µM | [8] > 100 µM | [9] > 100 µM | [19] > 100 µM | [10] > 100 µM | [12] > 100 µM | [13] > 100 µM | [20] > 100 µM | [14] > 100 µM | [16] 29.5 µM | [17] > 100 µM | [18] > 100 µM

COc1cc(OC)cc(C(=O)CC(=O)c2cc(OC)cc(OC)c2)c1
inactive: [2] > 100 µM | [3] > 100 µM | [4] > 100 µM | [5] > 100 µM | [7] > 100 µM | [8] 95.1 µM | [9] 94.4 µM | [19] > 100 µM | [10] > 100 µM | [12] > 100 µM | [13] > 100 µM | [20] 47.8 µM | [14] > 100 µM | [15] > 100 µM | [16] > 100 µM | [17] 46.1 µM | [18] > 100 µM

COc1cc(-c2oc3c(OC)c(O)c(OC)c(O)c3c(=O)c2OC)cc(O)c1OC
inactive: [1] 55.1 µM | [2] 51.2 µM | [3] 47.5 µM | [4] 42.9 µM | [5] 65.9 µM | [6] 28.4 µM | [7] > 100 µM | [8] 44.3 µM | [9] 33.3 µM | [19] 14.3 µM | [10] 23.9 µM | [11] 24.3 µM | [12] 37.9 µM | [13] 38.3 µM | [14] 12.1 µM | [15] 23.8 µM | [16] 20.7 µM | [17] 26.5 µM | [18] 22.6 µM

CC(C)(C)OC(=O)NC(Cc1ccc(OCc2ccccc2)cc1)C(=O)NC(CCCCNC(=O)OCc1ccccc1)C(=O)O (stereo unspecified) (Boc-Tyr(Bn)-Lys(Cbz)-OH; configuration not given here)
inactive: [1] 28 µM | [2] 87.9 µM | [3] 17.4 µM | [4] 28 µM | [5] 27.3 µM | [7] 96.4 µM | [8] 49 µM | [9] 68.1 µM | [19] 28.2 µM | [10] 94.2 µM | [12] 35.3 µM | [13] 2.72 µM | [20] 28.6 µM | [14] 34 µM | [15] 32.7 µM | [17] 42.8 µM | [18] 29.2 µM

Reference: ChEMBL document CHEMBL1201862, “PubChem BioAssay data set” (2004)
